Results from patent US20080070846A1, “TREATING ACUTE EXACERBATIONS OF ASTHMA USING A KETOLIDE” (Aventis Pharmaceuticals Inc, priority 2004, published 2008).

Tests used:
asthmatic patients = conditions: cited from earlier work
[1] = test system: children with an acute exacerbation of asthma; conditions: oral prednisone, after 7 days; pediatric, mean age 8.0 years; cited from earlier work
[2] = test system: adult patients with acute asthma; conditions: after seven to ten days of oral prednisone; cited from earlier work
[3] = test system: adults with mild asthma exacerbations; conditions: after 16 days of tapering oral prednisone; from 73% at onset of treatment; cited from earlier work
[4] = test system: adults following an acute asthma exacerbation; conditions: oral prednisone, over seven to ten days; cited from earlier work
[5] = test system: patients with acute exacerbations of asthma; test: Asthma diary symptom scores in double-blind, randomized, placebo-controlled study; assay type: in vivo, human
Protocol: (§1) Patients are centrally randomized (1:1) using computer-generated codes to receive blinded treatment with either oral telithromycin 800 mg once daily (two 400 mg capsules) or placebo (two capsules identical to those containing active treatment) for ten days using a proprietary Interactive Voice Recognition System to balance the treatment assignments within each study center. The first clinic visit (Visit 1), occurring within 24 hours of initial presentation is considered to be the study baseline. At baseline, patients are randomized to telithromycin or placebo. Telephone contact is made at 24-72 hours post-randomization to review concomitant medications taken and adverse events. Visit 2 is at the end of treatment (Days 11-14), Visit 3 is a post-treatment visit (Day 28 [±3 days]), and Visit 4 is the final visit (Day 42 [±3 days]). At each visit, patients undergo respiratory examinations, pulmonary function tests, health outcome assessments, and have a review of adverse events. Vital signs and concomitant medications are also recorded. Spontaneous or induced sputum samples nasopharyngeal swabs, and serum for serology for atypical pathogens are collected at Visits 1 and 3. Patients receiving at least one dose of study treatment and having one primary efficacy endpoint value are included in the intention to treat (ITT) population.
(§2) Asthma symptoms are measured using a modified version of a previously published diary card symptom score in which patients rate the frequency and severity of symptoms on a 7-point Likert scale. [see Santanello N. C., Barber B. L., Reiss T. F, Friedman B. S., Juniper E. F., Zhang J., Measurement Characteristics of Two Asthma Symptom Diary Scales for Use in Clinical Trials. Eur. Respir. J. 1997; 10:646-651]. Daily patient diaries are also used to record asthma symptoms, study treatment dosing, albuterol use, and other concomitant medications. Patient's home PEF values are also recorded in triplicate twice daily.
(§3) Efficacy endpoints are analyzed using an analysis of covariance (ANCOVA) model using factors for treatment, study center (investigator), treatment-by-center interaction, and baseline as covariates. Longitudinal analyses are based on the average over the 6-week study period. The treatment group means and the between-group differences are estimated using the ANCOVA model and between-group tests are used to compare telithromycin with placebo. The primary efficacy assessment time point is Visit 2 (end of treatment; Days 11-14).
Improvements in asthma symptoms assessed by the patients during the ten days of study treatment are analyzed using analysis of variance (ANOVA)/ANCOVA. Time to 50% reduction of asthma symptoms is summarized for treatment groups using a Kaplan-Meier procedure.

[6] = test system: patients with acute exacerbations of asthma; test: In-clinic pulmonary function tests (PEF, FEV1, FVC, FEF25-75%); assay type: in vivo, human
Protocol: as §1
PEF in liter/min, FEV1 in liters, FVC in liters, and FEF25-75% in liters/sec are recorded at clinic visits and are performed according to American Thoracic Society (ATS) standards. [see American Thoracic Society. Standardization of Spirometry. Am. J. Respir. Crit. Care Med. 1995; 152: 1107-1136].
as §3
In the models used, treatment effect is estimated while adjusting for the factor of center and for baseline values as covariates. This adjusted model accounts for the difference in the number of patients enrolled at each center. All mean data for efficacy outcomes are presented as least square (LS) means as they result from this adjusted model.

[7] = test system: patients with acute exacerbations of asthma; test: Morning home PEF recorded on diary cards; assay type: in vivo, human; conditions: patient-recorded; placebo 66.8 L/min
Protocol: as §2

[8] = test system: patients with acute exacerbations of asthma; test: Tolerability and safety assessment (adverse-event recording); assay type: in vivo, human
Protocol: Clinical safety is assessed in all patients by adverse-event recording and standard monitoring. Patients who receive at least one dose of […] and at least one safety assessment during treatment are considered evaluable for safety. All spontaneously reported adverse events and those identified by investigator observation are recorded and evaluated in terms of severity and causality.

C. pneumoniae = conditions: mice with acute C. pneumoniae infection; cited from earlier work

Question: Which “severity of bronchial hyperresponsiveness” value (asthmatic patients) does the source give for CC[C@H]1OC(=O)[C@H](C)[C@@H](O[C@H]2C[C@@](C)(OC)[C@@H](O)[C@H](C)O2)[C@H](C)[C@@H](O[C@@H]2O[C@H](C)C[C@H](N(C)C)[C@H]2O)[C@](C)(OC)C[C@@H](C)C(=O)[C@H](C)[C@@H](O)[C@]1(C)O [clarithromycin] here?
Answer: reduce the severity of bronchial hyperresponsiveness

Question: With C[C@]12C=CC(=O)C=C1CC[C@@H]1[C@@H]2C(=O)C[C@@]2(C)[C@H]1CC[C@]2(O)C(=O)CO [prednisone] as the compound, how does the “mean increase in FEF25-75%” value [1] read?
Answer: 0.41 L/s

Question: What about the “mean increase in FEV1” value [1] of the same compound?
Answer: 0.37 L

Question: What about the “mean increase in FVC” value [1] of the same compound?
Answer: 0.45 L

Question: And the “mean increase in PEF” value [1]?
Answer: 78 L/min

Question: And the PEF improvement [2]?
Answer: 46 L/min

Question: What about the “PEF % predicted after treatment” value [3] of the same compound?
Answer: 85%

Question: What about the “FEV1 increase, measured after bronchodilator use” value [4] of the same compound?
Answer: 0.55 L

Question: And the “PEF increase, measured after bronchodilator use” value [4]?
Answer: 77 L/min

Question: What does the source list for CC[C@H]1OC(=O)[C@H](C)C(=O)[C@H](C)[C@@H](O[C@@H]2O[C@H](C)C[C@H](N(C)C)[C@H]2O)[C@](C)(OC)C[C@@H](C)C(=O)[C@H](C)[C@H]2N(CCCCn3cnc(-c4cccnc4)c3)C(=O)O[C@]12C [telithromycin]?
Answer: median time to a 50% reduction in symptoms ([5]; Kaplan-Meier, placebo 8 days, P=0.031): 5 days; mean change in symptom score from baseline over the study period ([5]; entire 6-week observation period, 800 mg once daily for ten days): −51%; mean percent reduction in symptom severity from baseline to the end of treatment ([5]; oral 800 mg once daily for ten days, added to usual care, ITT N=126): −51%; proportion of patients with symptom-free days during the treatment period ([5]; placebo 8%, P=0.006): 16%; mean difference between treatments in change in symptom score over the study period ([5]; telithromycin vs placebo, 6-week period, 95% CI −24.75, −0.89%, P=0.035): −13%; mean difference between treatments in percent reduction in symptom severity, baseline to end of treatment ([5]; telithromycin vs placebo, 95% CI −36.64, −7.90%, P=0.003): −22%; Mean change from baseline to end of treatment, FEF25-75% ([6]; 800 mg/day for ten days, N=126): 0.85 L/s; Mean change from baseline to end of treatment, FVC ([6]; 800 mg/day for ten days, N=126): 0.58 L; Mean change from baseline to end of treatment, FEV1 ([6]; 800 mg/day for ten days, N=126, LS mean, Visit 2): 0.63 L; Mean change from baseline to end of treatment, PEF ([6]; 800 mg/day for ten days, N=126, in-clinic): 115.8 L/min; mean improvement in FEV1, subgroup with infection at baseline ([6]; C. pneumoniae and/or M. pneumoniae infection at baseline, 61 telithromycin patients): 0.67 L; mean improvement in FEV1, subgroup without evidence of infection ([6]; no evidence of C. pneumoniae/M. pneumoniae infection, 44 telithromycin patients): 0.65 L; difference between treatments in FEV1 improvement, subgroup with infection at baseline ([6]; telithromycin vs placebo, 95% CI 0.11, 0.47 L, P=0.002): 0.29 L; difference between treatments in FEV1 improvement, subgroup without evidence of infection ([6]; telithromycin vs placebo, 95% CI −0.17, 0.52 L, P=0.309): 0.18 L; Difference between treatments in mean change, FEV1 ([6]; telithromycin vs placebo, P=0.001): 0.29 L; Difference between treatments in mean change, FEF25-75% ([6]; telithromycin vs placebo, P=0.004): 0.40 L/s; Difference between treatments in mean change, FVC ([6]; telithromycin vs placebo, P=0.006): 0.27 L; Difference between treatments in mean change, PEF ([6]; telithromycin vs placebo, P=0.036): 26.9 L/min; improvement in morning home PEF from baseline over the treatment period (mean) [7]: 78.3 L/min; tolerability ([8]; 800 mg once daily for ten days): well tolerated; TEAEs considered possibly related to treatment, % of patients ([8]; 132 patients evaluable for safety): 20.5%; frequency of TEAEs ([8]; 132 patients evaluable for safety, placebo 39.7%): 38.6%; diarrhea possibly related to treatment ([8]; placebo 3.8%): 9.8%; culture and PCR positivity in the lungs (C. pneumoniae): reduce culture and PCR positivity
